From patent US11365192B2, “Pyridine compound substituted with azole” (TAISHO PHARMACEUTICAL CO., LTD., priority 2017, dated 2022)

How the values were obtained:
human CYP4A11 = human CYP4A11 (Homo sapiens (Human), UniProt Q02928); assay: Inhibition test against 20-HETE producing enzyme CYP4A11 (luciferine derivative, luminescence); format: biochemical
Outline: (§1)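 IC50 derived from luminescence after 60 min at room temperature with membrane fractions of E. coli expressing each human CYP (100 μg/mL protein). For CYP4A11, 60 μM luciferin derivative in 100 mM Tris-HCl pH 7.5 with NADPH-regenerating system; for CYP4F2, 2.5 μM substrate, 1 mM NADPH, 50 mM KPO4 pH 7.4.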

human CYP4F2 = human CYP4F2 (Homo sapiens (Human), UniProt P78329); assay: Inhibition test against 20-HETE producing enzyme CYP4F2 (luciferine derivative, luminescence); format: biochemical
Chain of human CYP4F2 (P78329 5-520): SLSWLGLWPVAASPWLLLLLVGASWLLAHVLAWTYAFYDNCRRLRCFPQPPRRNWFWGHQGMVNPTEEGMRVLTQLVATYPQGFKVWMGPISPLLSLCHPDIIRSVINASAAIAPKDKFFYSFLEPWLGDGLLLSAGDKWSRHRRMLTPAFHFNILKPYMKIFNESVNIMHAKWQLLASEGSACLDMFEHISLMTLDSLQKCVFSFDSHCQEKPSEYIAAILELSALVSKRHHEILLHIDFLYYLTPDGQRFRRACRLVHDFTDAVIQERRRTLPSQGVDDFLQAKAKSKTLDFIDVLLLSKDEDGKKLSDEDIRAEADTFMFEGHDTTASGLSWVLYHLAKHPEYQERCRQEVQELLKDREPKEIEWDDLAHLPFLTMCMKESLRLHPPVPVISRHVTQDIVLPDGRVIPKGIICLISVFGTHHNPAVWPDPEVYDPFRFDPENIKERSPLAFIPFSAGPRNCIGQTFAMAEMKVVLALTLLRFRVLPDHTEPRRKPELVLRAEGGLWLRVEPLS
Outline: as §1

[1] = human CYP4A11, luciferine derivative, luminescence
[2] = human CYP4F2, luciferine derivative, luminescence
[3] = E. coli membrane fraction expressing human CYP4A11, 60 μM luciferine derivative, room temperature 60 minutes
[4] = E. coli membrane fraction expressing human CYP4F2, 2.5 μM luciferine derivative, room temperature 60 minutes

Chain of human CYP4A11 (Q02928 5-519): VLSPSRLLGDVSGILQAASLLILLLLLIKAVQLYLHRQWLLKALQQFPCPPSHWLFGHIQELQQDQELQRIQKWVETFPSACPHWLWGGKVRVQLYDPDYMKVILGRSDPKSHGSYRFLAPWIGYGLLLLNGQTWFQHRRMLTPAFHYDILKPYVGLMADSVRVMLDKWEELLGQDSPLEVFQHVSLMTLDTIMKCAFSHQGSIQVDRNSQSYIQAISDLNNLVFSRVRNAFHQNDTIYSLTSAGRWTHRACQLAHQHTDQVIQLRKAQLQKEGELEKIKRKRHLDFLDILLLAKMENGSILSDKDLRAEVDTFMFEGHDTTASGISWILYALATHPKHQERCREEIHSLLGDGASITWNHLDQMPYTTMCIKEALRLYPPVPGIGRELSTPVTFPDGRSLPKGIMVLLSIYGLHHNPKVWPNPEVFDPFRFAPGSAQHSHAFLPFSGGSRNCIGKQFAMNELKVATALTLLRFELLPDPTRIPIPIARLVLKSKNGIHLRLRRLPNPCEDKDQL

SMILES | IC50 (human CYP4A11; [1]) [nM] | IC50 (human CYP4F2; [2]) [nM] | IC50 (human CYP4A11; [3]) [nM] | IC50 (human CYP4F2; [4]) [nM]
NC(=O)c1cc(COc2ccc(-c3ccn[nH]3)nc2)ccn1 [Example 44-7, 4-[[6-(1H-Pyrazol-5-yl)-3-pyridinyl]oxymethyl]-2-pyridinecarboxamide] | 3800 | 85 |  | 
CN(CCC(=O)O)C(=O)c1cccc(COc2ccc(-c3ccn[nH]3)nc2)c1 [Example 45-2] | 150 | 3200 |  | 
CC(C)(CNC(=O)c1cccc(COc2ccc(-c3ccn[nH]3)nc2)c1)C(=O)O [Example 45-3] | 91 | 6100 |  | 
O=C(NCC1(C(=O)O)CC1)c1cccc(COc2ccc(-c3ccn[nH]3)nc2)c1 [Example 45-4] | 86 | 6400 |  | 
O=C(O)C[C@H](NC(=O)c1cccc(COc2ccc(-c3ccn[nH]3)nc2)c1)c1ccccc1 [Example 45-7] | 780 | 2900 |  | 
O=C(O)C[C@@H](NC(=O)c1cccc(COc2ccc(-c3ccn[nH]3)nc2)c1)c1ccccc1 [Example 45-8] | 130 | 1900 |  | 
C[C@H](NC(=O)c1cccc(COc2ccc(-c3ccn[nH]3)nc2)c1)C(=O)O [Example 45-9] | 82 | 4800 |  | 
CC(C)(CCNC(=O)c1cccc(COc2ccc(-c3ccn[nH]3)nc2)c1)C(=O)O [Example 45-14] | 51 | 410 |  | 
CC(C)(CCNC(=O)c1cncc(COc2ccc(-c3ccn[nH]3)nc2)c1)C(=O)O [Example 45-17] | 510 | 1000 |  | 
CN(CCC(C)(C)C(=O)O)C(=O)c1cccc(COc2ccc(-c3ccn[nH]3)nc2)c1 [Example 45-18] | 440 | 270 |  | 
O=C(N[C@H]1CC[C@H](C(=O)O)CC1)c1cccc(COc2ccc(-c3ccn[nH]3)nc2)c1 [Example 45-20] | 410 | 2100 |  | 
O=C(N[C@H]1C[C@@H](C(=O)O)C1)c1cccc(COc2ccc(-c3ccn[nH]3)nc2)c1 [Example 45-21] | 580 | 6100 |  | 
O=C(N[C@H]1C[C@H](C(=O)O)C1)c1cccc(COc2ccc(-c3ccn[nH]3)nc2)c1 [Example 45-22] | 97 | 2800 |  | 
O=C(O)C1CCN(C(=O)c2cccc(COc3ccc(-c4ccn[nH]4)nc3)c2)CC1 [Example 45-27] | 510 | 2200 |  | 
O=C(O)[C@@H]1CCCN(C(=O)c2cccc(COc3ccc(-c4ccn[nH]4)nc3)c2)C1 [Example 45-28] | 270 | 3700 |  | 
O=C(O)CC1CCCN(C(=O)c2cccc(COc3ccc(-c4ccn[nH]4)nc3)c2)C1 (stereo not drawn) [Example 45-31] | 370 | 2500 |  | 
O=C(O)CC1CCCCN1C(=O)c1cccc(COc2ccc(-c3ccn[nH]3)nc2)c1 (stereo not drawn) [Example 45-32] | 660 | 6800 |  | 
O=C(O)C1CC2CCC(C1)N2C(=O)c1cccc(COc2ccc(-c3ccn[nH]3)nc2)c1 (stereo not drawn) [Example 45-33] | 2000 | 19000 |  | 
O=C(O)[C@@H]1CCCN1C(=O)c1cccc(COc2ccc(-c3ccn[nH]3)nc2)c1 [Example 45-34] | 220 | 17000 |  | 
O=C(O)C[C@@H]1CCN(C(=O)c2cccc(COc3ccc(-c4ccn[nH]4)nc3)c2)C1 [Example 45-40] | 410 | 1400 |  | 
O=C(O)CC1CN(C(=O)c2cccc(COc3ccc(-c4ccn[nH]4)nc3)c2)C1 [Example 45-41] | 200 | 1800 |  | 
O=C(O)c1cc2n(n1)CCN(C(=O)c1cccc(COc3ccc(-c4ccn[nH]4)nc3)c1)C2 [Example 45-45] | 1700 | 1600 |  | 
O=C(NCc1cc(O)no1)c1cccc(COc2ccc(-c3ccn[nH]3)nc2)c1 [Example 45-47] |  |  | 190 | 970
O=C(CCC12CC(C(=O)O)(C1)C2)N1CCC[C@@H](COc2ccc(-c3ccn[nH]3)nc2)C1 [Example 46-2] |  |  | 730 | 470
O=C(O)C12CCC(C(=O)N3CCC[C@@H](COc4ccc(-c5ccn[nH]5)nc4)C3)(CC1)CC2 [Example 46-4] |  |  | 1000 | 18000
O=C(O)c1cccc(CC(=O)N2CCC[C@@H](COc3ccc(-c4ccn[nH]4)nc3)C2)c1 [Example 46-5] |  |  | 280 | 7500

Results, then the compound that gave them:

IC50 (human CYP4A11; [1]) [nM] | IC50 (human CYP4F2; [2]) [nM] | IC50 (human CYP4A11; [3]) [nM] | IC50 (human CYP4F2; [4]) [nM] | SMILES
31 | 2700 |  |  | CS(=O)(=O)NC(=O)CCc1cccc(COc2ccc(-c3ccn[nH]3)nc2)c1 [Example 44-5]
230 | 45 |  |  | CN(C(=O)CCc1cccc(COc2ccc(-c3ccn[nH]3)nc2)c1)S(C)(=O)=O [Example 44-6]
120 | 7600 |  |  | O=C(O)CCNC(=O)c1cccc(COc2ccc(-c3ccn[nH]3)nc2)c1 [Example 45-1, 3-[[Oxo-[3-[[6-(1H-pyrazol-5-yl)-3-pyridinyl]oxymethyl]phenyl]methyl]amino]propanoic Acid]
74 | 750 |  |  | O=C(NCC1(C(=O)O)CCCC1)c1cccc(COc2ccc(-c3ccn[nH]3)nc2)c1 [Example 45-5]
250 | 4500 |  |  | O=C(NCC1(C(=O)O)CCOCC1)c1cccc(COc2ccc(-c3ccn[nH]3)nc2)c1 [Example 45-6]
180 | 10000 |  |  | C[C@@H](NC(=O)c1cccc(COc2ccc(-c3ccn[nH]3)nc2)c1)C(=O)O [Example 45-10]
23 | 1200 |  |  | O=C(N[C@@H](Cc1ccccc1)C(=O)O)c1cccc(COc2ccc(-c3ccn[nH]3)nc2)c1 [Example 45-11]
220 | 890 |  |  | O=C(N[C@H](Cc1ccccc1)C(=O)O)c1cccc(COc2ccc(-c3ccn[nH]3)nc2)c1 [Example 45-12]
240 | 6800 |  |  | O=C(NC1(C(=O)O)CCOCC1)c1cccc(COc2ccc(-c3ccn[nH]3)nc2)c1 [Example 45-13]
1200 | 180 |  |  | CC(C)(CCNC(=O)c1cc(COc2ccc(-c3ccn[nH]3)nc2)ccn1)C(=O)O [Example 45-15]
120 | 3400 |  |  | CC(C)(CCNC(=O)c1cccc(COc2ccc(-c3ccn[nH]3)nc2)n1)C(=O)O [Example 45-16]
1000 | 13000 |  |  | O=C(N[C@H]1CC[C@@H](C(=O)O)CC1)c1cccc(COc2ccc(-c3ccn[nH]3)nc2)c1 [Example 45-19]
710 | 3900 |  |  | O=C(NC12CC(C(=O)O)(C1)C2)c1cccc(COc2ccc(-c3ccn[nH]3)nc2)c1 [Example 45-23]
56 | 830 |  |  | O=C(O)c1ccc(CNC(=O)c2cccc(COc3ccc(-c4ccn[nH]4)nc3)c2)cc1 [Example 45-24]
40 | 370 |  |  | O=C(O)c1cccc(CNC(=O)c2cccc(COc3ccc(-c4ccn[nH]4)nc3)c2)c1 [Example 45-25]
31 | 880 |  |  | O=C(NCc1ccccc1C(=O)O)c1cccc(COc2ccc(-c3ccn[nH]3)nc2)c1 [Example 45-26]

IC50 (human CYP4A11; [1]) [nM] | IC50 (human CYP4F2; [2]) [nM] | IC50 (human CYP4A11; [3]) [nM] | IC50 (human CYP4F2; [4]) [nM] | SMILES
170 | 4900 |  |  | O=C(O)[C@H]1CCCN(C(=O)c2cccc(COc3ccc(-c4ccn[nH]4)nc3)c2)C1 [Example 45-29]
290 | 4000 |  |  | O=C(O)CC1CCN(C(=O)c2cccc(COc3ccc(-c4ccn[nH]4)nc3)c2)CC1 [Example 45-30]
3200 | 13000 |  |  | O=C(O)[C@H]1CCCN1C(=O)c1cccc(COc2ccc(-c3ccn[nH]3)nc2)c1 [Example 45-35]
230 | 1100 |  |  | O=C(O)C1CCN(C(=O)c2cccc(COc3ccc(-c4ccn[nH]4)nc3)c2)C1 (stereo not drawn) [Example 45-36]
120 | 720 |  |  | O=C(c1cccc(COc2ccc(-c3ccn[nH]3)nc2)c1)N1CCC(F)(C(=O)O)C1 (stereo not drawn) [Example 45-37]
310 | 300 |  |  | O=C(c1cc(COc2ccc(-c3ccn[nH]3)nc2)ccn1)N1CCC(F)(C(=O)O)C1 (stereo not drawn) [Example 45-38]
470 | 1400 |  |  | O=C(O)C[C@H]1CCN(C(=O)c2cccc(COc3ccc(-c4ccn[nH]4)nc3)c2)C1 [Example 45-39]
450 | 34 |  |  | O=C(O)c1nc2c(o1)CN(C(=O)c1cccc(COc3ccc(-c4ccn[nH]4)nc3)c1)C2 [Example 45-42]
1700 | 5200 |  |  | O=C(O)c1ncc2c(n1)CN(C(=O)c1cccc(COc3ccc(-c4ccn[nH]4)nc3)c1)C2 [Example 45-43]
110 | 3500 |  |  | O=C(O)c1cnn2c1CN(C(=O)c1cccc(COc3ccc(-c4ccn[nH]4)nc3)c1)CC2 [Example 45-44]
160 | 54 |  |  | O=C(O)c1nc2c(o1)CCN(C(=O)c1cccc(COc3ccc(-c4ccn[nH]4)nc3)c1)C2 [Example 45-46]
 |  | 3200 | 7600 | CC(C)(CC(=O)N1CCC(COc2ccc(-c3ccn[nH]3)nc2)CC1)C(=O)O [Example 46-1, 2,2-Dimethyl-4-oxo-4-[4 [[6-(1H-pyrazol-5-yl)-3-pyridinyl]oxymethyl]-1-piperidinyl]butanoic Acid]
 |  | 1500 | > 50000 | O=C(O)C12CC(C(=O)N3CCC[C@@H](COc4ccc(-c5ccn[nH]5)nc4)C3)(C1)C2 [Example 46-3]
 |  | 830 | 150 | O=C(CCCC1(C(=O)O)CCCC1)N1CCC(COc2ccc(-c3ccn[nH]3)nc2)CC1 [Example 47-1, 1-[4-Oxo-4-[4-[[6-(1H-pyrazol-5-yl)-3-pyridinyl]oxymethyl]-1-piperidinyl]butyl]-1-cyclopentanecarboxylic Acid]
 |  | 620 | 11000 | O=C(O)CCC(=O)N1CCC(COc2ccc(-c3ccn[nH]3)nc2)CC1 [Example 48-1, 4-Oxo-4-[4-[[6-(1H-pyrazol-5-yl)-3-pyridinyl]oxymethyl]-1-piperidinyl]butanoic Acid]
